From publication PMC12305662, “Fragment-Based Development of Small Molecule Inhibitors Targeting Mycobacterium tuberculosis Cholesterol Metabolism” (Journal of Medicinal Chemistry, 2025)
Converted amounts (≈) assume the structure as drawn. “And” between values parts separate entries of the source, which are not always exact repeats. Equal entries are not always repeated. Where two headings read alike, the source gives them in different places.

Legend:
CYP125 [1] = target: T1, CYP125 (Mycobacterium tuberculosis, UniProt P9WPP1); assay: LC-MS substrate turnover assay (cholest-4-en-3-one); type: biochemical
T1 sequence (P9WPP1 whole entry): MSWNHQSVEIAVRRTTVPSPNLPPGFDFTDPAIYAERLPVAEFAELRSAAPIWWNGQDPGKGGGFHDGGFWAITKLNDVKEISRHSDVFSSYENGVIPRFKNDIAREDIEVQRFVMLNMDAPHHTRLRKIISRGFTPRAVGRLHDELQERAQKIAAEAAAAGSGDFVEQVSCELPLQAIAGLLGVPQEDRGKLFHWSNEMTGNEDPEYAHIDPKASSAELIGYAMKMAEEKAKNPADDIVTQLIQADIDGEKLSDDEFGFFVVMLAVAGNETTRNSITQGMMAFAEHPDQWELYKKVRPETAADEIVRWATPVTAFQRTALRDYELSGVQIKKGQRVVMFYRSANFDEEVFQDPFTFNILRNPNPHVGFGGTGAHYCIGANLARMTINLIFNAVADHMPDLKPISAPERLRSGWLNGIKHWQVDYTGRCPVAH

Mtb H37Rv [2] = assay: Depletion of intracellular ATP (BacTiter Glo), Mtb on cholesterol; type: cell-based, Mycobacterium tuberculosis; conditions: 2 weeks post-compound treatment
[3] = test system: Mtb/iniB reporter (cell wall damage response); type: cell-based, Mycobacterium tuberculosis; conditions: 50–0.05 μM, days 1, 2, 4, 7
Mtb CDC1551 [4] = assay: Depletion of intracellular ATP (BacTiter Glo), Mtb on cholesterol; type: cell-based; conditions: Mycobacterium tuberculosis, cholesterol as sole carbon source
Mtb (Erdman) = assay: Extracellular Mtb (Erdman) growth on cholesterol-supplemented (0.01%) media, MABA; type: cell-based, Mycobacterium tuberculosis; conditions: Mycobacterium tuberculosis, ERDMAN, 168 h, MABA 1 week post-compound treatment, mean ± SD n = 3, read-out: mixed media IC50 (Erdman)
[5] = test system: MDR-TB strain K26b00MR 113; assay: microbe, parasite or virus in culture; type: cell-based, Mycobacterium tuberculosis; conditions: Mycobacterium tuberculosis, K26b00MR 113
H37Rv Mtb = assay: Extracellular Mtb growth, MABA MIC90 (drug susceptible strain); type: cell-based; conditions: Mycobacterium tuberculosis
[6] = test system: Mtb H37Rv pATB45luc in THP-1 macrophages; assay: microbe, parasite or virus in culture; type: cell-based; conditions: Mycobacterium tuberculosis, 120 h, 5 days post-compound treatment, mean ± SD n = 2, read-out: intracellular growth Mtb IC50
Mtb H37Rv [7] = assay: Extracellular Mtb growth on cholesterol, MABA MIC99; type: cell-based, Mycobacterium tuberculosis; conditions: Mycobacterium tuberculosis, H37RV
CYP2C9 = target: T2, CYP2C9 (Homo sapiens, UniProt P11712); assay: Inhibition of human liver microsomal P450s; type: in vitro ADME
T2 construct: from tissue; host or cells: human liver microsomes
T2 sequence (P11712 whole entry): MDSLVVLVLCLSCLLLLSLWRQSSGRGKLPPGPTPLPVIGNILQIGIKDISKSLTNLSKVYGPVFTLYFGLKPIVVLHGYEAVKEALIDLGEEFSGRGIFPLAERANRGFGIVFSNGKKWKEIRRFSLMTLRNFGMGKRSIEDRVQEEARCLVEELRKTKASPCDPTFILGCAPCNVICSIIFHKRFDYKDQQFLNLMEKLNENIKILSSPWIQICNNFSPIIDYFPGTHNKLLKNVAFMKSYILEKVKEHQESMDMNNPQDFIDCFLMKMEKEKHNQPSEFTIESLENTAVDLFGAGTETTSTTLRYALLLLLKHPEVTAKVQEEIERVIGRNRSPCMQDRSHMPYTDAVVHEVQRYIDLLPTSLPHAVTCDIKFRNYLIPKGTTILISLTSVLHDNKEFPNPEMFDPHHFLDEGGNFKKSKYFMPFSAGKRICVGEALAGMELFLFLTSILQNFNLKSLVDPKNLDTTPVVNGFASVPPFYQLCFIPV
From the text: (§1) Table S8. Inhibition of human liver microsomal P450s. Inhibition constants (IC 50 values, µM) of
(§2) following substrates: CYP1A-ethoxyresorufin, CYP2C19- mephenytoin, CYP2C9-tolbutamide, CYP2D6-
(§3) dextromethorphan, CYP3A4-midazolam/testosterone.

CYP3A4 = target: T3, CYP3A4 (Homo sapiens, UniProt P08684); assay: Inhibition of human liver microsomal P450s; type: in vitro ADME
T3 construct: from tissue; host or cells: human liver microsomes
T3 sequence (P08684 whole entry): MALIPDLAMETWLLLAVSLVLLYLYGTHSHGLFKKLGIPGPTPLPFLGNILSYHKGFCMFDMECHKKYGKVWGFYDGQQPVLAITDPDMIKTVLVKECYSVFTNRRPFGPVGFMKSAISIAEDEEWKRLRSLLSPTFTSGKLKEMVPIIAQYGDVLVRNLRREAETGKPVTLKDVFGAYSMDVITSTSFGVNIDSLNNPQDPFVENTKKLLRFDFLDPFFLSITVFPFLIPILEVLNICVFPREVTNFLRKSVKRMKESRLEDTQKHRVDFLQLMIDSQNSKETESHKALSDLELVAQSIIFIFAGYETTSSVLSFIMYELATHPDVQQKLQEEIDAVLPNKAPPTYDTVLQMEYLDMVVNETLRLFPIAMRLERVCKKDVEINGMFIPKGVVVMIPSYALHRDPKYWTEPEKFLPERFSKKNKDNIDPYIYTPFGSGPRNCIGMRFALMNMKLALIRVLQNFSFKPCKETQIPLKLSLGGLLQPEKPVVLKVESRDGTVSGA
From the text: as §1, §2, §3

CYP2D6 = target: T4, CYP2D6 (Homo sapiens, UniProt P10635); assay: Inhibition of human liver microsomal P450s; type: in vitro ADME
T4 construct: from tissue; host or cells: human liver microsomes
T4 sequence (P10635 whole entry): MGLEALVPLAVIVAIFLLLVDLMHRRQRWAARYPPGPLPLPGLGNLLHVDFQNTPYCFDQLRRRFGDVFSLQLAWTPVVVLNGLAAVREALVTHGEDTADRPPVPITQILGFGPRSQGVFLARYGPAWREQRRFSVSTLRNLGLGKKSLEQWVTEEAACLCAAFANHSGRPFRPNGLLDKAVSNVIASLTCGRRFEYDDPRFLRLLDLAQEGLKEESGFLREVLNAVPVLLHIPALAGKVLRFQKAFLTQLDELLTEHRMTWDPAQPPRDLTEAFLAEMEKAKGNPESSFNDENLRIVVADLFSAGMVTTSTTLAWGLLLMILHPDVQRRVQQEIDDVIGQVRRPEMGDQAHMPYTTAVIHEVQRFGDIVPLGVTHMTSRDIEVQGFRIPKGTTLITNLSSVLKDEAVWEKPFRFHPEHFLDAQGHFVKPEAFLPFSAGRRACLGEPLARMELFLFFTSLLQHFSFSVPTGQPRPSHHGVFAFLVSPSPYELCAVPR
From the text: as §1, §2, §3

CYP1A = target: T5, CYP1A (Homo sapiens, UniProt P05177); assay: Inhibition of human liver microsomal P450s; type: in vitro ADME
T5 construct: from tissue; host or cells: human liver microsomes
T5 sequence (P05177 2-516 limits assumed): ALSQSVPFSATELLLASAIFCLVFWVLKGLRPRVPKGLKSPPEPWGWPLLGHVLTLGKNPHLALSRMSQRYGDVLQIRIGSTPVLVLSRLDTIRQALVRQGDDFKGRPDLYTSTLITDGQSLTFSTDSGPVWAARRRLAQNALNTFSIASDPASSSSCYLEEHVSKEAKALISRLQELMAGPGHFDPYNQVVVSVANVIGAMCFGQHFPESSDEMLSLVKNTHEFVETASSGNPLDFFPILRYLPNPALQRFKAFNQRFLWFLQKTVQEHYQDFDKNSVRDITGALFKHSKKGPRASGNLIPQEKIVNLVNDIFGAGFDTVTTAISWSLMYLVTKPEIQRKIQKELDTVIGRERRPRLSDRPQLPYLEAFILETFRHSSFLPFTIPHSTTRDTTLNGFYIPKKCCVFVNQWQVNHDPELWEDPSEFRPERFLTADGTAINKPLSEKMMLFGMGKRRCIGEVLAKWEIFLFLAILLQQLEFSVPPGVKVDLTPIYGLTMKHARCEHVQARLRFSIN
From the text: as §1, §2, §3

CYP2C19 = target: T6, CYP2C19 (Homo sapiens, UniProt P33261); assay: Inhibition of human liver microsomal P450s; type: in vitro ADME
T6 construct: from tissue; host or cells: human liver microsomes
T6 sequence (P33261 whole entry): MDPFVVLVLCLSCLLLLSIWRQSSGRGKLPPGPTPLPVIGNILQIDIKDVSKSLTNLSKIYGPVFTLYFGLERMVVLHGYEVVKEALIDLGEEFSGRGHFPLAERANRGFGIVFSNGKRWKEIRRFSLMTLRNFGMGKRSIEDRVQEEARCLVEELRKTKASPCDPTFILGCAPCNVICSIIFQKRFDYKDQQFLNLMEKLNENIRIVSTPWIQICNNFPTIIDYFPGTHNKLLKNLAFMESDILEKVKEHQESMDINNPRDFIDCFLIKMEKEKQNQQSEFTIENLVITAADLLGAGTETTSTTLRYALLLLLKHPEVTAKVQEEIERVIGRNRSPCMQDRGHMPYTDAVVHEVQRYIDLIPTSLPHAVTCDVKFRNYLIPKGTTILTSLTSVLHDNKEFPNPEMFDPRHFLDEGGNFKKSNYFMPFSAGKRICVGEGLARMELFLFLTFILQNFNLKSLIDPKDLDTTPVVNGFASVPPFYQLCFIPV
From the text: as §1, §2, §3

[8] = test system: uninfected THP-1 macrophages; assay: THP-1 cytotoxicity (ATPLite); conditions: concentrations up to 50 μM
[9] = test system: Mtb/recA reporter (DNA damage response); type: cell-based, Mycobacterium tuberculosis; conditions: 50–0.05 μM, days 1, 2, 4, 7
CYP142 = CYP142 (Mycobacterium tuberculosis, UniProt P9WPL5)
CYP142, sequence (P9WPL5 whole entry): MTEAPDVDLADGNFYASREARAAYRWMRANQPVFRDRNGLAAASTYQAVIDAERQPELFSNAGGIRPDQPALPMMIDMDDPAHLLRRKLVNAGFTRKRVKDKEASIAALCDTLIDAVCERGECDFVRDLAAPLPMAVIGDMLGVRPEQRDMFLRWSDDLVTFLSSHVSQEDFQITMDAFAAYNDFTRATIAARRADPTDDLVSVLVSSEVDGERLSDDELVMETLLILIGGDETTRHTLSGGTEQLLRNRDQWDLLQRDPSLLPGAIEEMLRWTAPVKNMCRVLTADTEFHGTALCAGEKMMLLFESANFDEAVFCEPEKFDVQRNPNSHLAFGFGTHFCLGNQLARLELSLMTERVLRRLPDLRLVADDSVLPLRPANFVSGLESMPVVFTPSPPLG

Mtb CDC1551 [10] = assay: Depletion of intracellular ATP, Mtb on glucose; conditions: read-out: ATP IC50 (W1) CDC1551, glucose media; glucose as sole carbon source; 1 week
Procedure: (Mtb) H37Rv or CDC1551 strains were grown in Middlebrook 7H9 broth medium (Difco) supplemented with 0.3 g/L casitone, 0.81 g/L NaCl, 0.05% (v/v) tyloxapol, and either 97 mg/L cholesterol, 4 g/L glucose, or 0.2% glycerol. For inhibitor assays, a 10-fold serial dilution of the test compounds was made in the desired medium in duplicate rows of a 96-well plate. Mtb cells were then added to all the wells at the final concentration of 1 × 10^4 CFU, and plates were incubated at 37 °C for up to 15 days. Minimum inhibitory concentrations (MIC99) were determined using the Microplate Alamar Blue Assay (MABA) on day 15.
BacTiter Glo reagent (Promega) was added to microtiter plates (1:10 dilution) and luminescence was recorded after 15 min of incubation at room temperature. […] Isoniazid or p-amino salicylic acid were used as positive control compounds for all experiments. Reported MIC and IC50 values are the mean of duplicate treatments.

Mtb CDC1551 [11] = assay: Extracellular Mtb growth on cholesterol, MABA MIC99; type: cell-based, Mycobacterium tuberculosis; conditions: Mycobacterium tuberculosis, CDC1551, 336 h; cholesterol as sole carbon source; 2 weeks post-compound treatment; read-out: MABA-MIC99 (W2) CDC1551, cholesterol
CYP125 [12] = target: T1, CYP125; assay: biochemical; type: binding
[13] = proportion of binding affinity attributed to the 1a-ii hotspot

With `COc1ccc(CNc2ccc(Cc3ccncc3)cc2)cc1` [5m, N-(4-Methoxybenzyl)-4-(pyridin-4-ylmethyl)aniline] as the compound, how does the IC50 (CYP125 [1]; CYP125 0.5 μM, cholest-4-en-3-one 5 µM, LC-MS, read-out: CYP125A1 IC50) read?
Its IC50 is 350 ± 40 nM.

And the Ki (CYP125 [1]; estimated by Cheng-Prusoff, cholest-4-en-3-one Km CYP125 = 2.1 µM, read-out: CYP125A1 KI)?
Its Ki is < 1000 nM and 100 nM.

And the Ki (CYP125 [1]; one bound given for both enzymes, read-out: KI, enzyme activity in vitro (CYP125/142))?
The Ki was under 100 nM.

And the Ki (CYP125 [1]; one range given for both enzymes, read-out: KI, catalytic activity in vitro (CYP125/142))?
Its Ki is 50 to 100 nM.

What about the IC50 (Mtb H37Rv [2]; Mycobacterium tuberculosis, H37RV, 336 h, H37Rv, bovine serum albumin, read-out: ATP IC50 (W2), cholesterol media with BSA) of the same compound?
Its IC50 is 2300 nM.

And the IC50 (Mtb H37Rv [2]; Mycobacterium tuberculosis, H37RV, 336 h, H37Rv, casitone, read-out: ATP IC50 (W2), cholesterol media with casitone)?
Its IC50 is 1500 nM.

And the IC50 (Mtb H37Rv [2]; Mycobacterium tuberculosis, H37RV, 336 h, cholesterol as sole carbon source, read-out: ATP-IC50 (W2) H37Rv, cholesterol)?
Its IC50 is 1200 nM.

And the IC50 (Mtb H37Rv [2]; cholesterol as sole carbon source, read-out: ATP-IC50 (W2) H37Rv, cholesterol)?
Its IC50 is 1100 nM.

What about the “upregulation of iniB reporter” value [3] of the same compound?
The value was “did not induce the upregulation”.

What about the IC50 (Mtb CDC1551 [4]; CDC1551, 168 h, 1 week post-compound treatment, read-out: ATP-IC50 (W1) CDC1551, cholesterol) of the same compound?
The IC50 was 590 nM.

And the IC50 (Mtb CDC1551 [4]; CDC1551, 336 h, 2 weeks post-compound treatment, read-out: ATP-IC50 (W2) CDC1551, cholesterol)?
Its IC50 is 9400 nM.

What about the IC50 (Mtb (Erdman)) of the same compound?
Its IC50 is 2900 ± 190 nM.

What about the MIC90 ([5]; 168 h, read-out: MIC90 (W1) MDR-TB, MABA 1 week post-compound treatment) of the same compound?
Its MIC90 is 0.39 µM (≈ 0.119 µg/mL).

What about the MIC90 ([5]; 336 h, read-out: MIC90 (W2) MDR-TB, MABA 2 weeks post-compound treatment) of the same compound?
The MIC90 was 12.5 µM (≈ 3.8 µg/mL).

What about the MIC90 (H37Rv Mtb; 168 h, read-out: MIC90 (W1) H37Rv) of the same compound?
The MIC90 was 0.78 µM (≈ 0.237 µg/mL).

And the MIC90 (H37Rv Mtb; 336 h, MABA 2 weeks post-compound treatment, read-out: MIC90 (W2) H37Rv)?
The MIC90 was 6.25 µM (≈ 1.9 µg/mL).

And the IC50 [6]?
Its IC50 is 1700 ± 180 nM.

And the MIC99 (Mtb H37Rv [7]; 336 h, cholesterol as sole carbon source, 2 weeks post-compound treatment, read-out: MABA-MIC99 (W2) H37Rv, cholesterol)?
The MIC99 was 1.5 µM.

And the MIC99 (Mtb H37Rv [7]; 336 h, cholesterol as sole carbon source, 2 weeks, conversion of 1.5 μM, read-out: MIC99 H37Rv, cholesterol)?
The MIC99 was about 0.46 µg/mL.

What about the MIC99 (Mtb H37Rv [7]; read-out: MIC99, growth of Mtb in extracellular assays) of the same compound?
Its MIC99 is 0.4 to 1.5 µM.

And the IC50 (CYP2C9)?
The IC50 was 1860 nM.

What about the IC50 (CYP3A4; CYP3A4 IC50 (midazolam), substrate midazolam (first value of cell)) of the same compound?
Its IC50 is 520 nM.

What about the IC50 (CYP3A4; CYP3A4 IC50 (testosterone), substrate testosterone (second value of cell)) of the same compound?
Its IC50 is 1820 nM.

And the IC50 (CYP2D6)?
The IC50 was 330 nM.

What about the IC50 (CYP1A) of the same compound?
Its IC50 is 820 nM.

And the IC50 (CYP2C19)?
The IC50 was 440 nM.

And the “THP-1 cytotoxicity in words” value [8]?
Its value is “no effect on THP-1 cell viability”.

And the “upregulation of recA reporter” value [9]?
The value was “did not induce the upregulation”.

And the Kd (CYP142)?
Its Kd is 80 nM.

And the “ΔΔG [5m-1a], CYP142” value (CYP142; [13])?
The value was 0.2.

What about the IC50 (Mtb CDC1551 [10]) of the same compound?
Its IC50 is 4700 nM.

And the MIC99 (Mtb CDC1551 [11])?
Its MIC99 is 13 µM (≈ 3.96 µg/mL).

And the “improvement in binding affinity KD 1a/5m, CYP125” value (CYP125 [12])?
The value was over 1000 fold.

What about the “ligand efficiency (LE)” value (CYP125 [12]) of the same compound?
Its value is over 0.4.

What about the “group efficiency (GE) of the benzylamine” value (CYP125 [12]; CYP125 and CYP142) of the same compound?
The value was 0.20–0.50.

What about the Kd (CYP125 [12]; KD, dual CYP125/142 ligand) of the same compound?
Its Kd is 0.04 to 0.16 µM and ~0.1 µM.

And the “ΔΔG [5m-1a], CYP125” value (CYP125 [12]; [13])?
Its value is 0.5.

What about the Kd (CYP125 [12]; read-out: KD (μM) CYP125) of the same compound?
Its Kd is 0.04 ± 0.021 µM.
